Assay results from the NIST ThermoML archive (doi:10.1021/je0302304).

Test: xn = mol fraction of the nth substance listed
Details: 101.32 kPa, Liquid

COCCOCCOCCOC [2,5,8,11-tetraoxadodecane] + CCO
mass density [kg/m3]
Details | 288.15 K | 298.15 K | 308.15 K | 318.15 K
x1 = 0.0045 | 796.7 | 788.2 | 779.5 | 770.6
x1 = 0.0085 | 799.3 | 790.7 | 782 | 773.1
x1 = 0.0125 | 801.7 | 793.2 | 784.4 | 775.5
x1 = 0.0165 | 804.2 | 795.6 | 786.8 | 778
x1 = 0.0205 | 806.6 | 798 | 789.2 | 780.3
x1 = 0.0305 | 812.4 | 803.7 | 794.9 | 786
x1 = 0.05 | 823 | 814.2 | 805.4 | 796.4
x1 = 0.1 | 846.7 | 837.7 | 828.8 | 819.7
x1 = 0.15 | 866.4 | 857.3 | 848.3 | 839
x1 = 0.2 | 882.9 | 873.6 | 864.5 | 855.2
x1 = 0.25 | 896.9 | 887.7 | 878.6 | 869.2
x1 = 0.3 | 909.2 | 900 | 890.7 | 881.4
x1 = 0.35 | 919.8 | 910.5 | 901.3 | 891.9
x1 = 0.4 | 929.2 | 919.8 | 910.5 | 901.1
x1 = 0.4499 | 937.4 | 928 | 918.6 | 909.2
x1 = 0.5 | 944.8 | 935.3 | 925.9 | 916.4
x1 = 0.55 | 951.4 | 941.9 | 932.4 | 922.9
x1 = 0.6 | 957.3 | 947.7 | 938.3 | 928.8
x1 = 0.65 | 962.7 | 953.1 | 943.7 | 934.2
x1 = 0.7 | 967.5 | 958 | 948.6 | 939
x1 = 0.75 | 972 | 962.4 | 953 | 943.5
x1 = 0.7999 | 976.1 | 966.5 | 957.1 | 947.5
x1 = 0.8499 | 979.9 | 970.3 | 960.8 | 951.3
x1 = 0.8998 | 983.4 | 973.8 | 964.3 | 954.8
x1 = 0.9498 | 986.7 | 977.1 | 967.6 | 958.1
x1 = 1 | 989.7 | 980.1 | 970.7 | 961.1

COCCOCCOC [2,5,8-trioxanonane] + CCO
mass density [kg/m3]
Details | 288.15 K | 298.15 K | 308.15 K | 318.15 K
x1 = 0.0045 | 795.6 | 787 | 778.4 | 769.6
x1 = 0.0085 | 797.1 | 788.6 | 779.9 | 771.1
x1 = 0.0125 | 798.7 | 790.1 | 781.5 | 772.6
x1 = 0.0165 | 800.3 | 791.7 | 783 | 774.1
x1 = 0.0205 | 801.8 | 793.2 | 784.4 | 775.6
x1 = 0.0305 | 805.5 | 796.9 | 788.1 | 779.2
x1 = 0.05 | 812.6 | 803.8 | 795 | 786
x1 = 0.1 | 828.7 | 819.7 | 810.7 | 801.5
x1 = 0.15 | 842.6 | 833.6 | 824.5 | 815.1
x1 = 0.2 | 855 | 845.8 | 836.5 | 827.1
x1 = 0.25 | 865.9 | 856.6 | 847.3 | 837.8
x1 = 0.3 | 875.7 | 866.3 | 856.9 | 847.3
x1 = 0.35 | 884.5 | 875 | 865.5 | 855.8
x1 = 0.4 | 892.4 | 882.9 | 873.2 | 863.5
x1 = 0.45 | 899.6 | 889.9 | 880.2 | 870.5
x1 = 0.4999 | 906 | 896.4 | 886.7 | 876.8
x1 = 0.55 | 912 | 902.3 | 892.5 | 882.6
x1 = 0.5999 | 917.4 | 907.7 | 897.8 | 887.9
x1 = 0.65 | 922.5 | 912.6 | 902.8 | 892.8
x1 = 0.6999 | 927.1 | 917.2 | 907.3 | 897.3
x1 = 0.7499 | 931.3 | 921.4 | 911.5 | 901.5
x1 = 0.7999 | 935.3 | 925.4 | 915.4 | 905.4
x1 = 0.8499 | 939 | 929 | 919.1 | 909
x1 = 0.8998 | 942.4 | 932.4 | 922.5 | 912.5
x1 = 0.9498 | 945.7 | 935.7 | 925.7 | 915.7
x1 = 1 | 948.6 | 938.7 | 928.7 | 918.6
